Results on 14 compounds are retold here after article PMC9381947 (Antiviral Research, 2022).

“Also recorded” adds a separate entry of the source. Like-named read-outs stand apart in the source and are kept apart here.

For assay [1], the target named is T1, SARS-CoV-2 NSP13 helicase (Severe acute respiratory syndrome coronavirus 2, UniProt P0DTD1). Description: biochemical. The settings on record: for NSP13 helicase inhibition relative to PUG: compared with PUG; for inhibition at 20 µM: read-out: inhibitory activity against NSP13, confirmation screen.
For assay [2], the target named is SARS-CoV-2 NSP13 ATPase activity (Severe acute respiratory syndrome coronavirus 2, UniProt P0DTD1). As to the kind of experiment: Luciferase-coupled ATP assay. Format: biochemical.
A further assay has as its target NSP13/DNA complex (Severe acute respiratory syndrome coronavirus 2, UniProt P0DTD1). As to the kind of experiment: Electrophoretic mobility shift assay. Format: biochemical, SARS-CoV-2. Conditions: pre-incubation of NSP13 with compound, FAM-labeled 5ˊ flap DNA. (A gel shift assay detects complexes by their altered migration in electrophoresis.)
For assay [3], the target named is T1, SARS-CoV-2 NSP13 helicase. Description: Gel-based DNA unwinding assay. Format: biochemical. Conditions: PUG at concentrations over 1 μM.
For a further assay, the target named is SARS-CoV-2 NSP13 (Severe acute respiratory syndrome coronavirus 2, UniProt P0DTD1). As to the kind of experiment: Surface plasmon resonance. Type of assay: binding. The settings on record: SPR, NSP13 coupled to CM5 chip. Background: SPR reads the build-up and loss of mass on a sensor chip optically.
Assay [4] deals with human adenovirus (HAdV) type 7 (HAdV-7). Description: Antiviral assay in A549 cells. The settings on record: 48 h, qRT-PCR, listed as PUG. (Quantitative PCR measures a nucleic acid by following its amplification.)
The mark [5] stands for this setting: IC50 against NSP13 helicase activity, Table 1.
Setting [6] is: read-out: IC50 against NSP13 helicase activity.
Setting [7] is: read-out: IC50 against NSP13 helicase activity, Table 1.
Where [8] appears, read: IC50, DNA unwinding activity of NSP13, text and figures.

Usually IC50 stands for the concentration at which inhibition is half-maximal. The term Kd denotes a measure of binding affinity in units of concentration.

As to `Oc1cc(O)c2c(c1)O[C@H](c1cc(O)c(O)c(O)c1)[C@H](O)[C@H]2c1c(O)cc(O)c2c1O[C@H](c1cc(O)c(O)c(O)c1)[C@H](O)[C@H]2c1c(O)cc(O)c2c1O[C@H](c1cc(O)c(O)c(O)c1)[C@H](O)C2` [Katacine], the IC50 in assay [1] (setting [5]) turned out to be 5980 nM. `O=C(O)CSc1cc(NS(=O)(=O)c2ccc(Br)cc2)c2ccccc2c1O` [UMI-77, reference compound]: in assay [1] (setting [6]), the IC50 was determined as 4380 nM. With `O=c1oc2c(O)c(O)cc3c(=O)oc4c(O)c(O)cc1c4c23` [EA, ellagic acid], the IC50 in assay [1] (IC50, DNA unwinding activity of NSP13, text) is roughly 2800 nM. Further, the “NSP13 helicase inhibition relative to PUG” value in assay [1] is given as “about six times weaker”. For the same compound, the “inhibition of ATP hydrolysis by NSP13” value in assay [2] (10 μM ATP) was “much weaker inhibition”. For the same compound, the “NSP13/DNA complex formation (EMSA)” value on NSP13/DNA complex was “reduced the complex formation in a concentration-dependent manner; also recorded: much weaker inhibition”. In the case of `O=C([O-])c1cc(=O)[nH]c(=O)[nH]1.O=C([O-])c1cc(=O)[nH]c(=O)[nH]1.[Zn+2]` [Zinc Orotate], the IC50 in assay [1] (setting [7]) amounted to 4120 nM. Consider `O=C1O[C@@H]2[C@@H](OC(=O)c3cc(O)c(O)c(O)c3-c3c1cc(O)c(O)c3O)[C@H](O)O[C@@H]1COC(=O)c3cc(O)c(O)c(O)c3-c3c(O)c(O)c4oc(=O)c5c(c(O)c(O)c6oc(=O)c3c4c65)-c3c(cc(O)c(O)c3O)C(=O)O[C@@H]21` [Punicalagin, 2,3-hexahydroxydiphenoyl-gallagyl-D-glucose], for which the values for the IC50 in assay [1] (setting [8]) and in assay [1] (setting [5]) were 427 nM and 430 nM, respectively. The “helicase activity of NSP13 in gel-based DNA unwinding assay” value in assay [3] is “nearly abolished”. Besides, on SARS-CoV-2 NSP13, the affinity, expressed as Kd, was 21.6 nM. The “Km of NSP13 ATPase” value in assay [2] (with increasing concentrations of PUG) was “increased”. Moreover, the “antiviral effect against HAdV-7” value in assay [4] is recorded as “did not show detectable antiviral effects”. On to `O=c1cc(-c2ccccc2)oc2cc(O)c(O)c(O)c12` [Baicalein, reference compound], for which the inhibition at 20 µM in assay [1] is greater than 70%. In the case of `O=C1OC[C@H]2OC(O)[C@H](O)[C@@H](O)[C@@H]2OC(=O)c2cc(O)c(O)c(O)c2-c2c(O)c(O)c3oc(=O)c4c(c(O)c(O)c5oc(=O)c2c3c54)-c2c1cc(O)c(O)c2O` (mixture of isomers) [PUL, punicalin], the IC50 in assay [1] (setting [8]) was roughly 540 nM. Besides, the “NSP13 helicase inhibition relative to PUG” value in assay [1] was “comparable inhibitory activity”. For the same compound, the “helicase activity of NSP13 in gel-based DNA unwinding assay” value in assay [3] was “slightly weak inhibitory effect than PUG”. Further, the “NSP13/DNA complex formation (EMSA)” value at NSP13/DNA complex is “reduced the complex formation in a concentration-dependent manner”. With `O=c1cc(-c2ccc(O)cc2)oc2cc(O)c(O)c(O)c12` [Scutellarein, reference compound], the inhibition at 20 µM in assay [1] was greater than 70%.

For the compound `O=c1c(O)c(-c2cc(O)c(O)c(O)c2)oc2cc(O)cc(O)c12` [Myricetin, reference compound], the inhibition at 20 µM in assay [1] is greater than 70%.

In the case of “Bismuth subsalicylat [reference compound]”, the “inhibitory activity against NSP13, confirmation screen” value in assay [1] (20 µM) was “more than 70%”. As to `CC(C)c1cc2c(c(O)c1O)[C@@]13CCCC(C)(C)[C@@H]1[C@H](OC3=O)[C@H]2O` [Rosmanol], in assay [1] (setting [5]), half-maximal inhibition (IC50) was put at 8930 nM. Consider `CC(C)[C@H](NC(=O)CCCCCN1C(=O)C=CC1=O)C(=O)N[C@@H](CCCNC(N)=O)C(=O)Nc1ccc(COC(=O)Oc2ccc([N+](=O)[O-])cc2)cc1` [MC-Val-Cit-PABC-PNP], for which the IC50 in assay [1] (setting [6]) came out at 2450 nM.

For `O=C(N/N=C/c1cc(O)c(O)cc1O)c1cc2ccccc2cc1O` [Dyngo-4a, reference compound], the IC50 in assay [1] (setting [7]) came out at 630 nM. On the same count and under the same terms, as for Tannic acid, the figure is 1250 nM.
